Measured values as given in PubChem BioAssay AID1996.
In brackets after ≈: the same amount, converted by molar mass.

settings: buffer; pH 7.4; 200.0 µM

Row | solubility kinetic [µg/mL] | SMILES
1 | 32.2 (≈ 100 µM) | CCN(CC)CCOCCOc1ccc(Cl)c2ccccc12
2 | 10.9 | COc1ccc(C(=O)n2c(N)nc3ccccc32)cc1OC.Cl
3 | 16.4 (≈ 51 µM) | N#Cc1ccc(NC(=O)CN2CCN(c3ccccn3)CC2)cc1
4 | > 34.5 | COc1cccc(CNc2ccccn2)c1O
5 | 6 (≈ 17.3 µM) | COc1ccccc1NC(=S)N(Cc1cccs1)C1CCCC1
6 | 46.1 (≈ 132 µM) | Cn1c(Br)nc2c1c(=O)n(Cc1ccccc1)c(=O)n2C
7 | 37.9 (≈ 121 µM) | CC(C)=CCN1CCN(CC#Cc2ccccc2)CC1CCO (centres undefined)
8 | 45.1 (≈ 132 µM) | CCc1ccc(OCC(=O)N2CC(C(N)=O)Oc3ccccc32)cc1 (centres undefined)
9 | > 51.7 | Cc1ccccc1NC(=O)c1ccc(S(=O)(=O)N2CCCC2)cc1
10 | > 43.2 | O=C1NN(c2ccc(F)cc2)C(=O)/C1=C/c1cccs1
11 | > 50.8 | O=C(O)c1cc(S(=O)(=O)N2CCCCC2)ccc1N1CCCC1
12 | 1 (≈ 2.34 µM) | C=CCN(c1ccccc1OC)S(=O)(=O)c1cccc(C(=O)NCc2ccco2)c1
13 | > 45.2 | COc1ccccc1CCNC(=O)c1nccnc1C(=O)O
14 | > 51.4 | CCc1ccccc1NC(=O)C1CCN(C(=O)c2cccs2)CC1
15 | 4.2 (≈ 14 µM) | COc1ccccc1OCCn1c(=O)oc2ccc(C)cc21
16 | 2.2 (≈ 6.82 µM) | Cc1[nH]c2ccccc2c1C(=O)C(=O)NCCOc1ccccc1
17 | > 36 | O=C(NCc1ccc(Cl)cc1)C1CCCO1 (centres undefined)
18 | 27.8 (≈ 107 µM) | C=CCOc1ccccc1CN1CCCN(C)CC1
19 | > 52.3 | Cl.O=[N+]([O-])c1ccccc1OCCCN1CCc2ccccc2C1
20 | 11.4 (≈ 33.4 µM) | CC(NC(=O)COC(=O)c1ccc2c(c1)OCCO2)c1ccccc1 (centres undefined)

Row | solubility kinetic [µg/mL] | SMILES
21 | 41.8 (≈ 145 µM) | O=C(CSc1ccccc1)Nc1ccc2c(c1)OCO2
22 | 32.6 (≈ 102 µM) | O=c1cc(O)c2c(=O)n(Cc3ccccc3)c3ccccc3c2o1
23 | > 36.5 | CCN(CC)C(=N)/C(C#N)=N/Nc1ccccc1
24 | > 47.1 | COC(=O)C1CCCN1S(=O)(=O)c1ccc([N+](=O)[O-])cc1 (centres undefined)
25 | 41.1 (≈ 135 µM) | CCOCCN(C(=O)c1ccccc1Cl)c1ccccc1
26 | 48.4 (≈ 149 µM) | Cc1ccc(S(=O)(=O)N(C)CC(=O)N2CCCCCC2)cc1
27 | > 39.2 | Cc1ccc(C)c(-n2ccnc2SCC(N)=O)c1
28 | 34 (≈ 139 µM) | O=C(O)c1cccc2c1C(=O)N(C1CCCC1)C2
29 | > 43.1 | COc1ccc(S(=O)(=O)NC2CCCCC2)cc1F
30 | 0.5 (≈ 1.63 µM) | CCc1cccc(NC(=O)Cn2cc(C=O)c3ccccc32)c1
31 | 15.3 (≈ 35.3 µM) | O=C(C1CCCN1S(=O)(=O)c1ccc(Cl)cc1)N1CCN(c2ccccc2)CC1 (centres undefined)
32 | 33.7 (≈ 128 µM) | O=C(COc1ccccc1Cl)Nc1cccnc1
33 | > 57.7 | O=C(COC(=O)CNC(=O)C1CCCCC1)Nc1ccccc1OC(F)F
34 | > 50 | CC(C)(C)OC(=O)N1CCN(CCNC(=O)c2ccccc2)CC1
35 | 18.1 (≈ 54.6 µM) | CCc1ccc(C(=O)COC(=O)CNC(=O)C2CCCCC2)cc1
36 | 42.4 (≈ 142 µM) | O=C(NCCc1csc(-c2ccccc2)n1)c1ccco1
37 | 10.4 (≈ 34.5 µM) | O=C(COC(=O)/C=C/c1ccccc1)NC1CCCCCC1
38 | < 0.7 | CC(=O)c1cn(CCOc2cc(C)ccc2C)c2ccccc12
39 | 44.8 (≈ 142 µM) | CCOC(=O)NC1Cc2ccccc2C1Sc1ccccn1 (centres undefined)
40 | 1.4 (≈ 4.96 µM) | Cc1[nH]c2ccccc2c1C(=O)CSc1ccccn1

Row | solubility kinetic [µg/mL] | SMILES
41 | 8.5 (≈ 18.2 µM) | COc1ccc(S(=O)(=O)N2CCOCC2)cc1NC(=O)CSc1nc(C)c(C)c(C)n1
42 | 45.2 | C=Cn1cc[n+](CC(=O)c2ccc(OC)cc2)c1.[Br-]
43 | > 44.9 | Cc1cccc(C)c1OCC(=O)Nc1cccc(C(=O)O)c1
44 | > 47 | C[C@H](NC(=O)N1CCn2c1nc1ccccc12)C(=O)NC1CC1
45 | 7.3 (≈ 23.6 µM) | CCOc1ccccc1NC(=O)Cc1coc2ccc(C)cc12
46 | 5.9 (≈ 16.3 µM) | CC(C)N(Cc1nc(-c2ccccc2)no1)C(=O)C(Cl)(Cl)Cl
47 | 31.1 (≈ 121 µM) | COc1ccc(S(=O)(=O)N2CCNCC2)cc1
48 | > 44.3 | COc1ccccc1CCNC(=O)c1ccc2nc[nH]c2c1
49 | 2.6 (≈ 9.1 µM) | O=C(Cc1ccccc1Cl)Nc1nc2ccccc2[nH]1
50 | > 60.4 | CCC1(c2ccc(Cl)cc2)NC(=O)N(CC(=O)NC2(C#N)CCCCC2)C1=O (centres undefined)
51 | 44.1 (≈ 146 µM) | COc1ccc(C(=O)O)cc1S(=O)(=O)NCCN(C)C
52 | 2.5 (≈ 7.71 µM) | O=C1NC(CCc2ccccc2)C(=O)N1CCOc1ccccc1 (centres undefined)
53 | 33.1 (≈ 90.1 µM) | COc1cc(/C=C/C(=O)OCC(=O)N2CCCc3ccccc32)ccc1O
54 | 0.7 (≈ 2.68 µM) | Cn1cc(/C=C/C(=O)c2ccccc2)c2ccccc21
55 | < 0.3 | CCC(=O)c1cn(CC(=O)Nc2ccccc2)c2ccccc12
56 | > 41.7 | O=C(OCC(=O)N1CCCCCC1)c1ccc[nH]c1=O
57 | 15.8 (≈ 46.4 µM) | CC1CCCN(c2ccc(C(=O)Nc3cccnc3)cc2[N+](=O)[O-])C1 (centres undefined)
58 | > 42.8 | COc1cc(CCC(C)NCc2ccccc2)ccc1O (centres undefined)
59 | 9.2 (≈ 31.5 µM) | Cc1ccc(C)c(C(=O)COc2ncnc3ccccc23)c1
60 | 1.9 (≈ 5.77 µM) | Cc1ccc(CSCc2ccc(C(=O)NC3CCCC3)o2)cc1

The next lines start with the compound.

Row | SMILES | solubility kinetic [µg/mL]
61 | O=C(NCCc1ccc(Cl)cc1)c1cnccn1 | > 39.3
62 | CN(C)S(=O)(=O)c1cccc(NC(=O)COC(=O)[C@H](Cc2ccccc2)NC(=O)c2ccco2)c1 | 24.2 (≈ 48.4 µM)
63 | COc1ccc(OCc2nc(-c3ccc(F)c(F)c3)cs2)cc1 | < 0.7
64 | CCc1nc2sc(C(=O)O)c(N)c2c2c1CCCC2 | > 41.5
65 | COc1ccc(OCC(=O)Nc2ccc3c(c2)n(C)c(=O)n3C)cc1 | 48.2 (≈ 141 µM)
66 | COc1ccc(CNC(=O)Nc2cccc(Cl)c2)cc1 | 1.1 (≈ 3.78 µM)
67 | CCc1cc2c(SCC(=O)NC3CC3)ncnc2s1 | > 44
68 | O=[N+]([O-])c1cc(F)c(N2CCCCC2)cc1Br | 0.3 (≈ 0.99 µM)
69 | Cc1ncoc1C(=O)Nc1ncc([N+](=O)[O-])s1 | > 38.1
70 | O=c1[nH]c(Sc2ccc([N+](=O)[O-])cc2[N+](=O)[O-])nc2ccccc12 | 26.3 (≈ 76.4 µM)
71 | Cc1cc(C)cc(OCC(=O)OCC(=O)NC2CC2)c1 | > 41.6
72 | O=C(/C=C/c1c(F)cccc1Cl)Nc1cccnc1 | 13.7 (≈ 49.5 µM)
73 | COc1ccc(C(=O)OCC(=O)Nc2ccc(Cl)cn2)cc1 | 1.2 (≈ 3.74 µM)
74 | N#Cc1ccc(C(=O)Nc2nc3ccccc3[nH]2)cc1 | 2.6 (≈ 9.91 µM)
75 | N=c1oc2cc(O)ccc2cc1C(=O)Nc1ccc(F)cc1 | 1.5 (≈ 5.03 µM)
76 | Cc1ccc(O)c(Nc2ncnc3ccccc23)c1.Cl | 4.5
77 | O=C1CN(/N=C/c2ccc([N+](=O)[O-])o2)C(=O)N1 | > 35.7
78 | COc1cc(NC(=O)c2ccc(Cl)cc2)c2ncccc2c1 | < 0.3
79 | COc1ccc(OCCCC(=O)Nc2nc(C)c(C(C)=O)s2)cc1 | 1.3 (≈ 3.73 µM)
80 | O=C(NCCCn1ccnc1)c1ccc(Cl)c(Cl)c1 | > 44.7

Row | SMILES | solubility kinetic [µg/mL]
81 | O=C(Nc1ccccc1)Nc1ccc2ccccc2c1 | < 0.3
82 | COc1ccc(CC(=O)Nc2ccc(OC)nc2)cc1 | > 40.8
83 | Cc1ccc(NC(=O)N(CCC(=O)O)Cc2ccccc2)cc1 | > 46.9
84 | COc1ccc(CCNC(=O)COC(=O)c2ccc(C)s2)cc1 | 27.6 (≈ 82.8 µM)
85 | CN(C)S(=O)(=O)Nc1cccc(-c2cn3c(n2)SCC3)c1 | > 48.7
86 | O=C(COC(=O)/C=C/c1ccc([N+](=O)[O-])cc1)NCc1ccco1 | 1.5 (≈ 4.54 µM)
87 | O=C(O)CC(CC(=O)Nc1ccc2ccccc2n1)c1ccccc1 (centres undefined) | > 50.2
88 | CN(C)CCCCOc1ccccc1F.O=C(O)C(=O)O | 17.2
89 | O=C(Nc1nccs1)c1c(O)c2c(n(Cc3ccco3)c1=O)CCCC2 | < 0.3
90 | CCCC(=O)Nc1ccc(NC(=O)c2cccc(OC)c2)cn1 | 8.7 (≈ 27.8 µM)
91 | O=[N+]([O-])c1ccc(Cl)c(C[n+]2cccc3ccccc32)c1.[Br-] | 56.9
92 | Cn1cc([N+](=O)[O-])c(C(=O)NCc2ccco2)n1 | > 37.5
93 | Cc1nn(CC(=O)N(CC(C)C)C2CCS(=O)(=O)C2)c(C)c1[N+](=O)[O-] (centres undefined) | > 55.9
94 | CC(C)c1ccc(S(=O)(=O)NCc2ccc3c(c2)OCO3)cc1 | 1.9 (≈ 5.7 µM)
95 | O=C(O)c1ccccc1N1C(=O)c2cccc3cccc(c23)C1=O | > 47.6
96 | NC(=O)c1cc(-c2csc(NCCc3ccccc3)n2)ccc1O | 8 (≈ 23.6 µM)
97 | COc1ccc(CCN(C)c2ncnc3sccc23)cc1OC | > 49.4
98 | CC(=O)Nc1ccc(-c2nc3ccccc3c(=O)o2)cc1 | 0.5 (≈ 1.78 µM)
99 | Cc1ccc(C)c(OCCC(=O)NCCc2ccc(F)cc2)c1 | 31.5 (≈ 99.9 µM)
100 | NS(=O)(=O)c1ccc2c(c1)C(=NO)c1cc(S(N)(=O)=O)ccc1-2 | 4.6 (≈ 13 µM)

Row | SMILES | solubility kinetic [µg/mL]
101 | COc1ccc(OCC(=O)Nc2ccc3c(c2)C(=O)NC3=O)cc1 | 2.4 (≈ 7.36 µM)
102 | Cc1ccc(OCCCN2C(=O)C(=O)c3cc(C)ccc32)cc1 | < 0.7
103 | Cn1c(N)c(C(=O)COC(=O)C2=NNC(=O)CC2)c(=O)n(C)c1=O | > 50.6
104 | N/C(=N\OC(=O)Cc1cccs1)c1ccc(Cl)cc1 | 5.8 (≈ 19.7 µM)
105 | Cc1ccc2oc(C(=O)NCc3ncc(C)[nH]3)c(C)c2c1 | 38.7 (≈ 137 µM)
106 | CCN(CC)c1ccc(NC(=S)NC(=O)c2cccs2)cc1 | < 0.2
107 | COC(=O)c1scc(S(=O)(=O)C(C)(C)C)c1N | 26 (≈ 93.7 µM)
108 | C/C(=N\S(=O)(=O)c1ccc(C)cc1)NC(=S)Nc1ccccc1 | 2.1 (≈ 6.04 µM)
109 | Cc1cn(C2CCC(CO)O2)c(=O)[nH]c1=O (centres undefined) | > 33.9
110 | Cc1ccc(SCC(=O)N=C2NC(=O)CS2)cc1 | 35.9 (≈ 128 µM)
111 | O=C(Nc1ccc(F)cc1)Nc1cccc(Br)c1 | 0.7 (≈ 2.26 µM)
112 | CCCCNC(=O)C1CCCN(S(=O)(=O)CC)C1 (centres undefined) | > 41.5
113 | Cc1ccc(NC(=O)c2ccc([N+](=O)[O-])s2)cc1S(=O)(=O)N1CCOCC1 | 3.1 (≈ 7.53 µM)
114 | Cc1nc(NC(=O)CN2CCOCC2)sc1C(=O)N(C)C | 40 (≈ 128 µM)
115 | O=C(CCl)Nc1nccs1 | > 26.5
116 | CCOC(=O)CN1C(=O)S/C(=C/c2ccc(C)o2)C1=O | 29.2 (≈ 98.9 µM)
117 | O=C(COC(=O)c1cccc(F)c1)Nc1ccc(Cl)cn1 | 6.2 (≈ 20.1 µM)
118 | Nc1ccccc1SCC(=O)Nc1cccc2ccccc12 | 32.6 (≈ 106 µM)
119 | O=c1[nH]c(=S)[nH]c2scc(-c3ccc(Br)cc3)c12 | 9.1 (≈ 26.8 µM)
